Test results from patent US10919841B2, “Monoamine reuptake inhibitors” (Research Triangle Institute, priority 2009, dated 2021).
Entries after “also recorded” stand apart in the source; their conditions may differ. Where two headings read alike, the source gives them in different places.

Key:
(h)SERT [1] = target: T1, (h)SERT (Homo sapiens, UniProt P31645); test: block of [3H]serotonin reuptake in HEK-(h)SERT cells; format: cell-based
T1 construct: expressed in transfected cells; host or cells: HEK293

(h)NET [2] = target: T2, (h)NET (Homo sapiens, UniProt P23975); test: competition binding with [125I]RTI-55 at (h)NET stably expressed in HEK293 cells; conditions: for Ki: read-out: Binding, Ki NET, mean ± standard error of three independent experiments
(h)DAT [3] = target: T3, (h)DAT (Homo sapiens, UniProt Q01959); test: competition binding with [125I]RTI-55 at (h)DAT stably expressed in HEK293 cells; conditions: for Ki: mean ± standard error of three independent experiments
T3 construct: expressed in transfected cells

(h)DAT [4] = target: T3, (h)DAT; test: block of [3H]dopamine reuptake in HEK-(h)DAT cells; format: cell-based; conditions: for times more potent than bupropion as DA uptake inhibitor: relative to bupropion
rats [5] = test: cocaine discrimination (2-lever operant), i.p. administration; conditions: for responders at 5 mg/kg / responders at 10 mg/kg / responders at 25 mg/kg / ED50 / responders at 50 mg/kg / responders at 100 mg/kg: Rattus norvegicus, ip; for responders at 5 mg/kg / responders at 10 mg/kg / responders at 25 mg/kg / responders at 50 mg/kg / responders at 100 mg/kg: read-out: % cocaine lever responding; for ED50: read-out: Full Generalization ED50
(h)NET [6] = target: T2, (h)NET; test: block of [3H]norepinephrine reuptake in HEK-(h)NET cells; conditions: for times better as NE uptake inhibitors than bupropion: relative to bupropion
(h)SERT [7] = target: T1, (h)SERT; conditions: read-out: Binding, Ki SERT
mice [8] = test: locomotor activity, 8-h time course protocol; format: in vivo; conditions: for locomotor stimulant activity across the 1-h and 8-h protocols, in words: 1-h and 8-h tests compared; for Emax / ED50: Mus musculus; for Emax: read-out: Locomotor Activity 8-Hour % Peak Cocaine, percent of cocaine's maximal effect, 30 min period of maximum stimulation; for ED50: read-out: Locomotor Activity 8-Hour ED50; for Locomotor Activity 8-Hour Time, min Period, length: duration of locomotor activity; for Locomotor Activity 8-Hour Time, min Period, max: time period of maximum effect; for onset and duration of locomotor activity, in words: mouse, in vivo
mice [9] = test: locomotor activity, 1-h observation protocol; format: in vivo; conditions: for Emax / ED50: Mus musculus; for Emax: 0.5 h, read-out: Locomotor Activity 1-Hour % Peak Cocaine; for ED50 / Locomotor Activity 1-Hour ED50: dose to produce 50% of the compound's maximal effect, 1-h
rats [10] = test: cocaine discrimination time-course study, oral administration; conditions: Rattus norvegicus, po, 0.75 h
[11] = [3H]5HT, read-out: IC50 for 5HT uptake inhibition
[12] = mean ± standard error of three independent experiments, read-out: Uptake, IC50 [3H]DA
[13] = read-out: IC50 for NE uptake inhibition, [3H]NE
[14] = mean ± standard error of three independent experiments
[15] = dose to produce 50% of the compound's maximal effect, 8-h
[16] = [3H]DA, read-out: IC50 for DA uptake inhibition
[17] = read-out: Uptake, IC50 [3H]NE, mean ± standard error of three independent experiments

T2 sequence (P23975 whole entry): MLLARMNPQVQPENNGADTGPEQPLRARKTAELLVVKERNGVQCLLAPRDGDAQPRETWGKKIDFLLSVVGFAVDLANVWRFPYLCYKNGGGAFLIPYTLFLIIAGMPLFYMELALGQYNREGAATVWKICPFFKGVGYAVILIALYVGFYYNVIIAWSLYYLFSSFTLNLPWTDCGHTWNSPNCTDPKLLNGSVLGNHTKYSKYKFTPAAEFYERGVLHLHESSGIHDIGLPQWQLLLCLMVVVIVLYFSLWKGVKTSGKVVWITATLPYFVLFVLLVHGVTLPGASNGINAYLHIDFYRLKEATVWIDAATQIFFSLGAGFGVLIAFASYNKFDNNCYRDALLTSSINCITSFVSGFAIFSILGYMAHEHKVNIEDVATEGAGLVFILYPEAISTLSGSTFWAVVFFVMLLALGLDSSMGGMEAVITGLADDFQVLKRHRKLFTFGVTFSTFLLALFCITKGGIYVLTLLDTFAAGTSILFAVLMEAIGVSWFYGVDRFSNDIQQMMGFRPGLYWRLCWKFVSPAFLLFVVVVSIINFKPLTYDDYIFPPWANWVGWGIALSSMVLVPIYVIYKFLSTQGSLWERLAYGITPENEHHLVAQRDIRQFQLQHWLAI
T1 sequence (P31645 whole entry): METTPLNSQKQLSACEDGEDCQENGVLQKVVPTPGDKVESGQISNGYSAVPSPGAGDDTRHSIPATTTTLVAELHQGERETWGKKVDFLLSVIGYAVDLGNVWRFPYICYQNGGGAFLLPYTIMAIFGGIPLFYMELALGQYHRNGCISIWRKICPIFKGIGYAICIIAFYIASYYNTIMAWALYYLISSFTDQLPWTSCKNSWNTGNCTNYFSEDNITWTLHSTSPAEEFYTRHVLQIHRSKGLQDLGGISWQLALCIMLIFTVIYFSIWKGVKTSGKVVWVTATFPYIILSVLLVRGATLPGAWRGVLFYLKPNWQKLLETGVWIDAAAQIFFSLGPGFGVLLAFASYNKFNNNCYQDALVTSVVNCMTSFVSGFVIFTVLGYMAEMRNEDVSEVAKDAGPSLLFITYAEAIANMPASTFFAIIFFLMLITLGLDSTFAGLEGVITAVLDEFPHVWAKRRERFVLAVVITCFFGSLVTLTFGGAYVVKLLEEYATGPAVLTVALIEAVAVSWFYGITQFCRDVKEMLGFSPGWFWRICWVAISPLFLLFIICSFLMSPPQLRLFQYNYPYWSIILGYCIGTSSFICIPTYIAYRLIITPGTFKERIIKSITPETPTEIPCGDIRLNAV
T3 sequence (Q01959 whole entry): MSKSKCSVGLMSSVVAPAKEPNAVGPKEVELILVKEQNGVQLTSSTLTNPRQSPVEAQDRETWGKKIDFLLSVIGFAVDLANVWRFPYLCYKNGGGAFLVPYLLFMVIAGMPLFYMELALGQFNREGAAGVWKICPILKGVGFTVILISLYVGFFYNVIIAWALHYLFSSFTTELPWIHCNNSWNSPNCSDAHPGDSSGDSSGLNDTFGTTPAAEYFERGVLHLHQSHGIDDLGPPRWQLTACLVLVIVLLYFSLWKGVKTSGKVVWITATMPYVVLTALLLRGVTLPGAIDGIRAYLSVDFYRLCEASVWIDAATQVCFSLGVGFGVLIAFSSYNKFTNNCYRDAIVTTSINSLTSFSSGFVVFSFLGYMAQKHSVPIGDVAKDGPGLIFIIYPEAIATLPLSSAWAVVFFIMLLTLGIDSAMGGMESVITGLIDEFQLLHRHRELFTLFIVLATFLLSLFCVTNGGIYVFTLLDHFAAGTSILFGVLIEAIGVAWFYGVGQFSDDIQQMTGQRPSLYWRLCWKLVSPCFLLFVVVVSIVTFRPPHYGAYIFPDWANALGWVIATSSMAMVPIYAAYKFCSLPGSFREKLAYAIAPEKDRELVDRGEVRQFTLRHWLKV

SMILES	IC50 ((h)SERT [1]; [11]) [µM]	responders at 10 mg/kg (rats [5]) [%]	responders at 25 mg/kg (rats [5]) [%]	IC50 ((h)NET [6]; [13]) [nM]	Ki ((h)SERT [7]; [14]) [nM]	locomotor stimulant activity across the 1-h and 8-h protocols, in words (mice [8])	Emax (mice [8]) [%]	ED50 (mice [8]; [15]) [mg/kg]	Locomotor Activity 8-Hour Time, min Period, length (mice [8]) [min]	Locomotor Activity 8-Hour Time, min Period, max (mice [8]) [min]	Ki ((h)NET [2]) [nM]	Ki ((h)DAT [3]) [nM]	Emax (mice [9]) [%]	ED50 (mice [9]) [mg/kg]	responders at 50 mg/kg (rats [5]) [%]	responders at 100 mg/kg (rats [5]) [%]	Ki ((h)SERT [7]) [nM]	Locomotor Activity 1-Hour ED50 (mice [9])	IC50 ((h)DAT [4]; [16]) [nM]	IC50 ((h)NET [6]; [17]) [nM]	other results
C[C@@H](NC(C)(C)C)[C@H](O)c1ccccc1 (racemic) [Compound 7, (1RS,2RS)-2-(N-tert-Butylamino)-1-phenyl-1-propanol, reference compound]	1.24																				affinity at the NET, in words ((h)NET [2]): loss of affinity; affinity at the DAT, in words ((h)DAT [3]): loss of affinity
CCC(NC(C)(C)C)C(=O)c1ccc(Cl)c(Cl)c1 (stereo not drawn) [Compound 2aa, 2-(tert-Butylamino)-3′,4′-dichlorobutyrophenone]		10	10	135	860	weak stimulants in both tests; also recorded: moderate activity in the 1-h test with increased activity in the time-course study	84	42.2	60	0 to 30	2240	278	41	50.3							DA uptake inhibition, in words ((h)DAT [4]): slightly lower IC50 values than 2j; IC50 ((h)DAT [4]; [12]): 175 nM; responders at 5 mg/kg (rats [5]): 1%; ED50 (rats [5]): 15 mg/kg; times better as NE uptake inhibitors than bupropion ((h)NET [6]): 10 times; IC50 ((h)SERT [1]; mean ± standard error of three independent experiments, read-out: Uptake, IC50 [3H]5-HT): 0.79 µM
CC(NC(C)(C)C)C(=O)c1ccc(Br)cc1 (stereo not drawn) [Compound 2g, 2-(N-tert-Butylamino)-4′-bromopropiophenone]		1	17			inactive in the 1-h test but showed weak stimulant activity in the 8-h protocol	54	32	160	140 to 170		1920			17	0	4170	NE^f			IC50 ((h)DAT [4]; [12]): 1300 nM; IC50 ((h)SERT [1]; read-out: Uptake, IC50 [3H]5-HT): 2.52 µM
CC(NC(C)(C)C)C(=O)c1ccc(Cl)c(Cl)c1 (stereo not drawn) [Compound 2j, 2-(N-tert-Butylamino)-3′,4′-dichloropropiophenone]		0	17				61	39.1	140 to 240		5400	472			34	2	1480	NE^f	271	2100	times more potent than bupropion as DA uptake inhibitor ((h)DAT [4]): 3.5 times; generalization to the cocaine cue, in words (rats [5]; i.p.): did not even show partial generalization; onset and duration of locomotor activity, in words (mice [8]): very slow onset of stimulatory activity
Cc1ccc(C(=O)C(C)NC(C)(C)C)cc1Cl (stereo not drawn) [Compound 2k, 2-(N-tert-Butylamino)-3′-chloro-4′-methylpropiophenone]	0.4				2100	moderate activity in the 1-h test with increased activity in the time-course study	87		60	10 to 40	5100	1150	74	31.9					650	900	times more potent than bupropion as DA uptake inhibitor ((h)DAT [4]): 2 times; ED50 (mice [8]; 8 h): 60.8 mg/kg
Cc1cc(C(=O)C(C)NC(C)(C)C)ccc1Br (stereo not drawn) [Compound 2l, 2-(N-tert-Butylamino)-4′-bromo-5′-methylpropiophenone]		0	0				46	12.8	240	50 to 80	4600				17	67	1220	NE^f		1620	IC50 ((h)SERT [1]; read-out: IC50 for 5HT uptake inhibition): 0.473 µM
CC(C)CC(NC(C)(C)C)C(=O)c1cccc(Cl)c1 (stereo not drawn) [Compound 2t, 2-(N-tert-Butylamino)-3′-chlorophenyl-4-methylpentanophenone]					6200	weak stimulants in both tests			320	260 to 290	2300	140						47.7 mg/kg	440	360	IC50 ((h)SERT [1]; bound given in μM, read-out: Uptake, IC50 [3H]5-HT): > 10 µM; Locomotor Activity 8-Hour ED50 (mice [8]; [15]): 22.1 mg/kg; onset and duration of locomotor activity, in words (mice [8]): very slow onset of stimulatory activity; Locomotor Activity 8-Hour % Peak Cocaine (mice [8]; percent of cocaine's maximal effect, 30 min period of maximum stimulation): 35%; Locomotor Activity 1-Hour % Peak Cocaine (mice [9]; maximal effect as percent of cocaine's maximal effect in the first 30 min): 62%
CCCNC(C)C(=O)c1cccc(Cl)c1 (stereo not drawn) [Compound 2v, 2-(N-Propylamino)-3′-chloropropiophenone]																		NE^f			DA uptake inhibition, in words ((h)DAT [4]): inactive; NE uptake inhibition, in words ((h)NET [6]): inactive; 5HT uptake inhibition, in words ((h)SERT [1]): inactive; Locomotor Activity 8-Hour ED50 (mice [8]; [15]): NE^f
CC(NC1CCC1)C(=O)c1cccc(Cl)c1 (stereo not drawn) [Compound 2y, 2-(N-Cyclobutylamino)-3′-chloropropiophenone]	0.185			86	3450						1800	343							258	86	times more potent than bupropion as DA uptake inhibitor ((h)DAT [4]): 3.7 times; times better as NE uptake inhibitors than bupropion ((h)NET [6]): 17 times
CC(NC1CCCC1)C(=O)c1cccc(Cl)c1 (stereo not drawn) [Compound 2z, 2-(N-Cyclopentylamino)-3′-chloropropiophenone]		0	66	221		strong stimulants in both studies	110		330 to 340	0 to 30	5700	2200	110	10.6	83				980		responders at 5 mg/kg (rats [5]): 2%; ED50 (rats [5]): 10.8 mg/kg; 5HT uptake inhibition, in words ((h)SERT [1]): totally inactive; ED50 (mice [8]; 8 h): 10.6 mg/kg; onset and duration of locomotor activity, in words (mice [8]): long durations of action; ED50 (rats [10]): 8.28 mg/kg
